Source: paper PMC3610419, “A Randomized, Double-Blind Placebo Controlled Trial of Balapiravir, a Polymerase Inhibitor, in Adult Dengue Patients” (The Journal of Infectious Diseases, 2012)
Marks after values point to notes of the source that are not given here.

Key:
[1] = 4500 mg twice daily of balapiravir, HCV-infected persons, cited from earlier work
[2] = Safety and tolerability, adverse events in adult dengue patients; settings: for safety and tolerability: 1500 mg or 3000 mg orally twice daily for 5 days, adult dengue patients
Description: Randomization to treatment group was by computer-generated randomization sequencing in blocks of 2. Balapiravir was formulated in a 500-mg film-coated tablet. The placebo consisted of an identical looking tablet containing excipient only. All balapiravir and placebo tablets were provided by F. Hoffmann-La Roche. Patients in cohort 1 (n = 20) received 1500 mg of balapiravir or an identical placebo orally every 12 hours for 5 days (10 doses). The decision to dose escalate (to 3000 mg) was made after review of the partially unblinded group mean clinical and laboratory data acquired from patients in cohort 1. Patients in cohort 2 (n = 44) received 3000 mg of balapiravir or placebo orally twice a day for 5 days (10 doses).
Eligible patients remained in clinic during a 7-day in-patient period then returned for follow-up visits on study days 14, 28, and 84. During the inpatient period, patient vital signs were assessed every 6 hours and routine laboratory investigations were performed daily or as clinically indicated. Safety and tolerability were monitored at regular intervals and included physical examinations, vital signs, electrocardiograms, clinical laboratory assessments, incidence of clinical adverse events, and concomitant medications. Any clinically significant abnormal laboratory test results were followed up until resolved or stabilized. A quality of life assessment, using a questionnaire and a visual analog scale, was implemented on study days 1, 3, 5, 7, 14, 28, and 84.

[3] = Host immune response (plasma cytokines, whole blood transcripts) and virus sequence diversity in adult dengue patients; type: in vivo, human
Description: Plasma samples were collected for virological and immunological investigations every 12 hours, beginning immediately before commencement of treatment, during the next 6 study days and on one occasion on study day 7 and day 14 (virological markers) or day 7 and day 28 (immunological markers). Viremia was measured using a validated, internally controlled reverse-transcription polymerase chain reaction assay in a Good Clinical Laboratory Practice environment. The limit of detection was 357 copies/mL for DENV-1, 72 copies/mL for DENV-2, 357 copies/mL for DENV-3, and 720 copies/mL for DENV-4. The presence of NS1 in plasma was determined using the Platelia NS1 assay (Bio-Rad) and was performed according to the manufacturer's instructions. Plasma cytokine levels (interleukin 1β [IL-1β], IL-2, IL-4, IL-5, IL-6, IL-10, IL-12p70, IL-13, interferon γ [IFN-γ], and tumor necrosis factor α [TNF-α]) were measured using a Bio-Plex human cytokine assay (Bio-Rad) and a multiplex array reader (Luminex Systems, Bio-Plex workstation from Bio-Rad Laboratories) according to the manufacturer's instructions. Briefly, 50-μL plasma samples were incubated with monoclonal antibody coupled beads. […] Cytokine concentrations in samples were calculated by use of recombinant cytokines as standards and software provided by the manufacturer (Bio-Plex Manager). […]

[4] = High dose (3000 mg twice a day, 5 days), n=22
[5] = Low dose (1500 mg twice a day, 5 days), n=10

## CC(C)C(=O)OC[C@@]1(N=[N+]=[N-])O[C@@H](n2ccc(N)nc2=O)[C@H](OC(=O)C(C)C)[C@@H]1OC(=O)C(C)C [Balapiravir]
[1]
  mean Cmin: 21 µM
[1]; read-out: mean Cmax
  Cmax: 88 µM
[2]; 1500 mg balapiravir arm
  reported serious adverse events (SAEs): 1
[2]
  safety and tolerability: safe and well-tolerated
[2]; listed as balapiravir
  safety and tolerability: well tolerated
[2]; 3000 mg balapiravir arm
  reported serious adverse events (SAEs): 1
[2]; [4]
  ABDOMINAL PAIN: 3 (13.64%) no.pt. (%)
  ABNORMAL INR: 1 (4.55%) no.pt. (%)
  ALTERATION OF TASTE: 0 (0%) no.pt. (%)
  ANOREXIA: 1 (4.55%) no.pt. (%)
  ANY EVENT - no (%) patients with at least one event: 19 (86.36%) no.pt. (%)
  ANY EVENT - no of events: 65
  BRUISING: 2 (9.09%) no.pt. (%)
  COUGH: 4 (18.18%) no.pt. (%)
  DECREASE OF FIBRINOGEN: 4 (18.18%) no.pt. (%)
  DIARRHOEA: 8 (36.36%) no.pt. (%)
  DYSPEPSIA: 1 (4.55%) no.pt. (%)
  ELEVATED ALT: 0 (0%) no.pt. (%)
  ELEVATED AST: 0 (0%) no.pt. (%)
  EPISTAXIS: 0 (0%) no.pt. (%)
  FLATULENCE: 0 (0%) no.pt. (%)
  GUM BLEEDING: 6 (27.27%) no.pt. (%)
  HEADACHE: 5 (22.73%) no.pt. (%)
  HEMATEMESIS: 0 (0%) no.pt. (%)
  HEMATURIA: 1 (4.55%) no.pt. (%)
  HEMOPTYSIS: 0 (0%) no.pt. (%)
  HYPOALBUMINEMIA: 1 (4.55%) no.pt. (%)
  ITCHY RASH ON CHEEK, AND FOREHEAD: 0 (0%) no.pt. (%)
  NARROW PULSE PRESSURE: 0 (0%) no.pt. (%)
  NAUSEA: 2 (9.09%) no.pt. (%)
  PETECHIAE: 6 (27.27%) no.pt. (%)
  PROLONGED APTT: 7 (31.82%) no.pt. (%)
  PROTEINURIA: 0 (0%) no.pt. (%)
  PRURITIS: 0 (0%) no.pt. (%)
  RETINAL INJURY: 0 (0%) no.pt. (%)
  SORE THROAT: 0 (0%) no.pt. (%)
  VERTIGO: 0 (0%) no.pt. (%)
  VOMIT: 2 (9.09%) no.pt. (%)
[2]; High dose (3000 mg twice a day, 5 days), n=22, one patient in this group had a SAE
  THROMBOCYTOPENIA: 11 (50%) ^a no.pt. (%)
[2]; [5]
  ABDOMINAL PAIN: 0 (0%) no.pt. (%)
  ABNORMAL INR: 0 (0%) no.pt. (%)
  ALTERATION OF TASTE: 0 (0%) no.pt. (%)
  ANOREXIA: 2 (20%) no.pt. (%)
  ANY EVENT - no (%) patients with at least one event: 8 (80%) no.pt. (%)
  ANY EVENT - no of events: 30
  BRUISING: 0 (0%) no.pt. (%)
  COUGH: 0 (0%) no.pt. (%)
  DECREASE OF FIBRINOGEN: 1 (10%) no.pt. (%)
  DIARRHOEA: 4 (40%) no.pt. (%)
  DYSPEPSIA: 1 (10%) no.pt. (%)
  ELEVATED ALT: 0 (0%) no.pt. (%)
  ELEVATED AST: 0 (0%) no.pt. (%)
  EPISTAXIS: 0 (0%) no.pt. (%)
  FLATULENCE: 0 (0%) no.pt. (%)
  GUM BLEEDING: 0 (0%) no.pt. (%)
  HEADACHE: 2 (20%) no.pt. (%)
  HEMATEMESIS: 0 (0%) no.pt. (%)
  HEMATURIA: 0 (0%) no.pt. (%)
  HEMOPTYSIS: 0 (0%) no.pt. (%)
  HYPOALBUMINEMIA: 1 (10%) no.pt. (%)
  ITCHY RASH ON CHEEK, AND FOREHEAD: 1 (10%) no.pt. (%)
  NAUSEA: 0 (0%) no.pt. (%)
  PETECHIAE: 4 (40%) no.pt. (%)
  PROLONGED APTT: 2 (20%) no.pt. (%)
  PROTEINURIA: 1 (10%) no.pt. (%)
  PRURITIS: 1 (10%) no.pt. (%)
  RETINAL INJURY: 0 (0%) no.pt. (%)
  SORE THROAT: 0 (0%) no.pt. (%)
  THROMBOCYTOPENIA: 4 (40%) no.pt. (%)
  VERTIGO: 1 (10%) no.pt. (%)
  VOMIT: 4 (40%) no.pt. (%)
[2]; Low dose (1500 mg twice a day, 5 days), n=10, one patient in this group had a SAE
  NARROW PULSE PRESSURE: 1 (10%) ^a no.pt. (%)
[3]; balapiravir treatment versus placebo
  kinetics of plasma cytokine concentrations and whole blood transcriptional profile: not attenuated
[3]; baseline, study days 4 and 28, data not shown
  treatment-related effects on whole blood gene transcript abundance: no evidence of treatment-related effects
